In paper PMC4889029 (Chemistry & biology, 2015):
Where two headings read alike, the source gives them in different places.

What was measured:
Experiment in all cases: in vitro DNA strand exchange assay with recombinant hRAD51
Type in all cases: biochemical
hRAD51 [1] = molecular target: T1, hRAD51 (Homo sapiens, UniProt Q06609)
T1 sequence (Q06609 2-339): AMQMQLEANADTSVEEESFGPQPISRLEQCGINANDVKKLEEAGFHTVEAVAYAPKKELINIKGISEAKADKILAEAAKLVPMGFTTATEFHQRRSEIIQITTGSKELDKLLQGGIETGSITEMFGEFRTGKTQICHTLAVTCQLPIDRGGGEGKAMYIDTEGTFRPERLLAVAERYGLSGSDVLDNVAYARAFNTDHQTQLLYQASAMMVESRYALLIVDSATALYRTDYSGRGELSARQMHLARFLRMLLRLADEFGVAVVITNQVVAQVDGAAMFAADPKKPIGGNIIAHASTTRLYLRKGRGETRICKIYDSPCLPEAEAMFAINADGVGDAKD

hRAD51 [2] = molecular target: T1, hRAD51; remark: listed apart in the source
hRAD51 [3] = molecular target: T1, hRAD51; remark: listed apart in the source

Question: With `O=S(=O)(O)c1cc(N=C=S)ccc1/C=C/c1ccc(N=C=S)cc1S(=O)(=O)O` [DIDS] as the compound, how does the IC50 (hRAD51 [1]) read?
Answer: 90 ± 2.5 µM

Question: How did the EC50 (hRAD51 [2]) turn out when `COc1cc(/C=C/c2ccc(O)cc2)cc(OC)c1` [P-ter, E-pterostilbene] was run?
Answer: 19.2 ± 2.4 µM

Question: For `O=C1C(Cl)=C(N2CCOCC2)C(=O)N1c1ccc(Cl)c(Cl)c1` [RI-1], which IC50 (hRAD51 [1]) is on record?
Answer: 50 ± 5 µM

Question: How did the EC50 (hRAD51 [3]) turn out when `O=C(Nc1ccc(Br)cc1)c1ccc(Br)c(S(=O)(=O)NCc2ccccc2)c1` [RS-1] was run?
Answer: 25 ± 3 µM
